These results are taken from patent US8871929B2, “Fused-imidazoyl compounds useful as antimicrobial agents” (Merck Sharp & Dohme Corp., priority 2010, dated 2014).

In brackets after ≈: the same amount, converted by molar mass.

For the test, the system named is Staphylococcus aureus ATCC29213. The experiment in a line: Susceptibility testing (MIC determination), broth microdilution. The format is cell-based. The settings on record: Mueller Hinton broth, 96-well plate, overnight incubation at 35° C., read-out: MIC Staph. aureus ATCC-29213. As for the experimental part: Compounds useful in the method of the invention were investigated for their utility as antimicrobial agents in the following assay. Susceptibility testing (MIC determinations) was performed using the standard broth microdilution methodology precisely as described in the Clinical Laboratory Standards Institute Document M7-A6; Methods for Dilution Antimicrobial Susceptibility Tests for Bacteria That Grow Aerobically; […] To perform the test, a series of 0.1 ml media in a 96-well plate is prepared with Mueller Hinton broth to which various concentrations of the test compound are added. The media are then inoculated with a standardized suspension of the test organism, Staphylococcus aureus ATCC29213. After overnight incubation at 35° C., the tests are examined and the minimal inhibitory concentration (MIC) is determined. MIC is defined as the lowest concentration of an antimicrobial agent that prevents visible growth of a microorganism in the broth microdilution susceptibility test
With `O=C(CNc1c(-c2ccc(N3CCOCC3)cc2)nc2ccc(F)cn12)N1CCN(c2c(Cl)cncc2Cl)CC1` [Compound 83], the MIC was 0.125 µg/mL (≈ 0.214 µM).
`CN(C)c1ccc(-c2nc3ccccn3c2NCC(=O)N2CCN(c3c(Cl)cncc3Cl)CC2)cc1` [Compound 28]: the MIC was 0.31 µg/mL (≈ 0.591 µM).
With `CCN1CCc2cc(-c3nc4cnccn4c3NCC(=O)N3CCN(c4ccccc4C#N)CC3)ccc21` [Compound 19], the MIC was 4 µg/mL (≈ 7.9 µM).
The figure for `Cc1ccn2c(NCC(=O)N3CCN(c4c(Cl)cncc4Cl)CC3)c(-c3ccc(N4CCOCC4)cc3)nc2c1` [Compound 74] is 0.06 µg/mL (≈ 0.103 µM).
With `O=C(CNc1c(-c2ccc(N3CCCC3)cc2)nc2ccccn12)N1CCC(c2cccc3ccccc23)CC1` [Compound 44], the MIC stood at 4 µg/mL (≈ 7.55 µM).
In the case of `CN(C)c1ccc(-c2nc3cnccn3c2NCC(=O)N2CCN(c3ncccc3C#N)CC2)cc1` [Compound 59], the MIC came to 6 µg/mL (≈ 12.5 µM).
In the case of `O=C(CNc1c(-c2cnc(N3CCCCC3)nc2)nc2cnccn12)N1CCN(c2c(Cl)cncc2Cl)CC1` [Compound 21], the minimal inhibitory concentration (MIC) was found to be 4 µg/mL (≈ 7.05 µM).
In the case of `CCN1CCc2cc(-c3nc4ccccn4c3NCC(=O)N3CCN(c4c(Cl)cncc4Cl)CC3)ccc21` [Compound 2], the MIC stood at 0.125 µg/mL (≈ 0.227 µM).
The figure for `Cc1ccc(Cl)cc1N1CCN(C(=O)CNc2c(-c3ccc(N4CCCC4)cc3)nc3cnccn23)CC1` [Compound 50] is 2.5 µg/mL (≈ 4.72 µM); for `Cc1cccc2nc(-c3ccc(N4CCOCC4)cc3)c(NCC(=O)N3CCN(c4c(Cl)cncc4Cl)CC3)n12` [Compound 76] it is 0.03 µg/mL (≈ 0.0517 µM); for `N#Cc1cccnc1N1CCN(C(=O)CNc2c(-c3ccc(N4CCCC4)cc3)nc3cnccn23)CC1` [Compound 47] it is 0.625 µg/mL (≈ 1.23 µM).
The figure for `CCc1ccc(-c2nc3cnccn3c2NCC(=O)N2CCN(c3c(Cl)cccc3Cl)CC2)s1` [Compound 18] is 3 µg/mL (≈ 5.82 µM).
In the case of `N#Cc1cccnc1N1CCN(C(=O)CNc2c(-c3ccc(N4CCCC4)cc3)nc3ccccn23)CC1` [Compound 36] it was 0.625 µg/mL (≈ 1.23 µM).
Regarding `O=C(CNc1c(-c2ccc(N3CCCC3)cc2)nc2ccccn12)N1CCN(c2ccccc2Cl)CC1` [Compound 30], the MIC is 5 µg/mL (≈ 9.71 µM).
For the compound `O=C(CNc1c(-c2ccc(N3CCSCC3)nc2)nc2cnccn12)N1CCN(c2c(Cl)cncc2Cl)CC1` [Compound 3], the minimal inhibitory concentration (MIC) was 0.125 µg/mL (≈ 0.214 µM).
`Cc1cccc(N2CCN(C(=O)CNc3c(-c4ccc(N5CCCC5)cc4)nc4ccccn34)CC2)c1C` [Compound 29]: the minimum inhibitory concentration (MIC) is 5 µg/mL (≈ 9.83 µM).
`CC(C)N1CCc2cc(-c3nc4cnccn4c3NCC(=O)N3CCN(c4c(Cl)cncc4Cl)CC3)ccc21` [Compound 15]: the MIC stood at 1 µg/mL (≈ 1.77 µM).
As for `O=C(CNc1c(-c2ccc(N3CCOCC3)nc2)nc2cnccn12)N1CCN(c2c(Cl)cncc2Cl)CC1` [Compound 7], the MIC came out at 0.4 µg/mL (≈ 0.704 µM).
Turning to `CN(C)c1ccc(-c2nc3cnccn3c2NCC(=O)N2CCN(c3c(Cl)cncc3Cl)CC2)cn1` [Compound 12], the MIC was 0.5 µg/mL (≈ 0.95 µM).
Turning to `CCc1ccc(-c2nc3cnccn3c2NCC(=O)N2CCN(c3c(Cl)cncc3Cl)CC2)s1` [Compound 16], the MIC came out at 2 µg/mL (≈ 3.87 µM).
As to `O=C(CNc1c(-c2ccc(N3CCCC3)cc2)nc2cnccn12)N1CCN(c2ccncc2Cl)CC1` [Compound 51], the MIC stood at 5 µg/mL (≈ 9.67 µM).
With `O=C(CNc1c(-c2ccc(N3CCOCC3)cc2)nc2cccc(C(F)(F)F)n12)N1CCN(c2c(Cl)cncc2Cl)CC1` [Compound 80], the MIC was 0.25 µg/mL (≈ 0.394 µM).
For the compound `Cc1ccc2nc(-c3ccc(N4CCOCC4)cc3)c(NCC(=O)N3CCN(c4c(Cl)cncc4Cl)CC3)n2c1` [Compound 78], the minimum inhibitory concentration (MIC) was found to be 0.125 µg/mL (≈ 0.215 µM).
In the case of `CCN1CCc2cc(-c3nc4cnccn4c3NCC(=O)N3CCN(c4ncccc4C#N)CC3)ccc21` [Compound 26], the MIC amounted to 8 µg/mL (≈ 15.8 µM).
As for `CN(C)c1ccc(-c2nc3cnccn3c2NCC(=O)N2CCC(c3cccc4ccccc34)CC2)cc1` [Compound 62], the MIC turned out to be 8 µg/mL (≈ 15.9 µM).
`O=C(CNc1c(-c2ccc(N3CCOCC3)cc2)nc2ccccn12)N1CCN(c2c(Cl)cncc2Cl)CC1` [Compound 73]: the MIC came to 0.09 µg/mL (≈ 0.159 µM).
Turning to `CN(C)c1ccc(-c2nc3cnccn3c2NCC(=O)N2CCN(c3ccccc3C#N)CC2)cc1` [Compound 58], the MIC was found to be 6 µg/mL (≈ 12.5 µM).
`CSc1ccccc1N1CCN(C(=O)CNc2c(-c3ccc(N4CCCC4)cc3)nc3ccccn23)CC1` [Compound 39]: the MIC came out at 1 µg/mL (≈ 1.9 µM).
Take `O=C(CNc1c(-c2ccc(N3CCOCC3)nc2)nc2cccc(Cl)n12)N1CCN(c2c(Cl)cncc2Cl)CC1` [Compound 1]: the MIC stood at 0.06 µg/mL (≈ 0.0997 µM).
Turning to `CC(C)N1CCCc2cc(-c3nc4cnccn4c3NCC(=O)N3CCN(c4c(Cl)cncc4Cl)CC3)ccc21` [Compound 14], the MIC turned out to be 1 µg/mL (≈ 1.73 µM).
The figure for `Cc1cccc(C)c1N1CCN(C(=O)CNc2c(-c3ccc(N(C)C)cc3)nc3ccccn23)CC1` [Compound 56] is 2 µg/mL (≈ 4.14 µM); for `Cc1cccc(C)c1N1CCN(C(=O)CNc2c(-c3ccc(N4CCCC4)cc3)nc3ccccn23)CC1` [Compound 37] it is 0.5 µg/mL (≈ 0.983 µM); for `O=C(CNc1c(-c2ccc(N3CCOCC3)cc2)nc2ccc(C(F)(F)F)cn12)N1CCN(c2c(Cl)cncc2Cl)CC1` [Compound 77] it is 0.06 µg/mL (≈ 0.0946 µM).
In the case of `Cc1ccccc1N1CCN(C(=O)CNc2c(-c3ccc(N4CCCC4)cc3)nc3ccccn23)CC1` [Compound 34] it was 5 µg/mL (≈ 10.1 µM).
On to `N#Cc1ccccc1N1CCN(C(=O)CNc2c(-c3ccc(N4CCCC4)cc3)nc3ccccn23)CC1` [Compound 35], for which the MIC turned out to be 0.313 µg/mL (≈ 0.619 µM).
As to `Cc1ccc2nc(-c3ccc(N4CCOCC4)nc3)c(NCC(=O)N3CCN(c4c(Cl)cncc4Cl)CC3)n2c1` [Compound 6], the minimal inhibitory concentration (MIC) stood at 0.25 µg/mL (≈ 0.43 µM).
On to `O=C(CNc1c(-c2ccc(N3CCOCC3)cc2)nc2cc(C(F)(F)F)ccn12)N1CCN(c2c(Cl)cncc2Cl)CC1` [Compound 82], for which the MIC was 0.125 µg/mL (≈ 0.197 µM).
For the compound `COC(=O)c1ccn2c(NCC(=O)N3CCN(c4c(Cl)cncc4Cl)CC3)c(-c3ccc(N4CCOCC4)cc3)nc2c1` [Compound 84], the MIC was determined as 0.125 µg/mL (≈ 0.2 µM).
As for `CCCN1CCCc2cc(-c3nc4cnccn4c3NCC(=O)N3CCN(c4c(Cl)cncc4Cl)CC3)ccc21` [Compound 25], the MIC worked out at 8 µg/mL (≈ 13.8 µM).
For `O=C(CNc1c(-c2ccc(N3CCCC3)cc2)nc2cnccn12)N1CCN(c2ccccc2C(F)(F)F)CC1` [Compound 72], the MIC amounted to 8 µg/mL (≈ 14.6 µM).
For the compound `CN(C)c1ccc(-c2nc3ccccn3c2NCC(=O)N2CCN(c3c(Cl)cccc3Cl)CC2)cc1` [Compound 57], the MIC stood at 0.25 µg/mL (≈ 0.478 µM).
`CC(C)N1CCCc2cc(-c3nc4cnccn4c3NCC(=O)N3CCN(c4ccccc4C#N)CC3)ccc21` [Compound 24]: the MIC is 8 µg/mL (≈ 15 µM).
Turning to `O=C(CNc1c(-c2ccc(N3CCCCC3)nc2)nc2cnccn12)N1CCN(c2c(Cl)cncc2Cl)CC1` [Compound 8], the MIC worked out at 0.44 µg/mL (≈ 0.777 µM).
For the compound `CC(C)c1ccc(-c2nc3cnccn3c2NCC(=O)N2CCN(c3ncccc3C#N)CC2)cc1` [Compound 67], the MIC turned out to be 4 µg/mL (≈ 8.32 µM).
In the case of `Cn1ccc2cc(-c3nc4cnccn4c3NCC(=O)N3CCN(c4c(Cl)cncc4Cl)CC3)ccc21` [Compound 22] it was 8 µg/mL (≈ 14.9 µM).
On to `O=C(CNc1c(-c2ccc(N3CCCC3)cc2)nc2ccccn12)N1CCN(c2c(Cl)cncc2Cl)CC1` [Compound 27], for which the MIC amounted to 0.06 µg/mL (≈ 0.109 µM).
The figure for `N#Cc1ccccc1N1CCN(C(=O)CNc2c(-c3ccc(N4CCCC4)cc3)nc3cnccn23)CC1` [Compound 46] is 0.313 µg/mL (≈ 0.618 µM).
Regarding `Cc1ccc(Cl)cc1N1CCN(C(=O)CNc2c(-c3ccc(N4CCCC4)cc3)nc3ccccn23)CC1` [Compound 40], the MIC was 1 µg/mL (≈ 1.89 µM).
Consider `CN1CCOc2cc(-c3nc4cnccn4c3NCC(=O)N3CCN(c4c(Cl)cncc4Cl)CC3)ccc21` [Compound 10], for which the MIC came out at 0.5 µg/mL (≈ 0.903 µM).
Turning to `CCN1CCc2cc(-c3nc4cnccn4c3NCC(=O)N3CCN(c4c(Cl)cncc4Cl)CC3)ccc21` [Compound 33], the MIC is 0.19 µg/mL (≈ 0.345 µM).
For the compound `CCCN1CCc2cc(-c3nc4cnccn4c3NCC(=O)N3CCN(c4c(Cl)cncc4Cl)CC3)ccc21` [Compound 17], the minimum inhibitory concentration (MIC) worked out at 2 µg/mL (≈ 3.54 µM).
For `O=C(CNc1c(-c2ccc(N3CCCC3)cc2)nc2cnccn12)N1CCC(c2cccc3ccccc23)CC1` [Compound 52], the MIC was found to be 5 µg/mL (≈ 9.42 µM).
Take `Cc1cccc2nc(-c3ccc(N4CCOCC4)nc3)c(NCC(=O)N3CCN(c4c(Cl)cncc4Cl)CC3)n12` [Compound 5]: the MIC amounted to 0.25 µg/mL (≈ 0.43 µM).
As to `O=C(CNc1c(-c2ccc(N3CCCC3)cc2)nc2ccccn12)N1CCN(c2c(Cl)cccc2Cl)CC1` [Compound 41], the MIC is 0.313 µg/mL (≈ 0.57 µM).
`CCc1ccc(-c2nc3cnccn3c2NCC(=O)N2CCN(c3c(Cl)cccc3Cl)CC2)o1` [Compound 23]: the minimal inhibitory concentration (MIC) worked out at 8 µg/mL (≈ 16 µM).
Take `CN(C)c1ccc(-c2nc3cnccn3c2NCC(=O)N2CCN(c3c(Cl)cccc3Cl)CC2)cc1` [Compound 61]: the MIC is 0.25 µg/mL (≈ 0.477 µM).
Turning to `CN(C)c1ccc(-c2nc3ccccn3c2NCC(=O)N2CCN(c3ncccc3C#N)CC2)cc1` [Compound 55], the MIC amounted to 6 µg/mL (≈ 12.5 µM).
Consider `CCc1ccc(-c2nc3cnccn3c2NCC(=O)N2CCN(c3c(Cl)cccc3Cl)CC2)cc1` [Compound 70], for which the MIC is 4 µg/mL (≈ 7.85 µM).
In the case of `CSc1ccccc1N1CCN(C(=O)CNc2c(-c3ccc(N4CCCC4)cc3)nc3cnccn23)CC1` [Compound 49], the MIC came out at 5 µg/mL (≈ 9.48 µM).
Turning to `Cc1ccc(Cl)cc1N1CCN(C(=O)CNc2c(-c3ccc(N(C)C)cc3)nc3cnccn23)CC1` [Compound 60], the MIC came out at 8 µg/mL (≈ 15.9 µM).
The figure for `O=C(CNc1c(-c2ccc(N3CCOCC3)cc2)nc2cccc(Cl)n12)N1CCN(c2c(Cl)cncc2Cl)CC1` [Compound 79] is 0.06 µg/mL (≈ 0.0998 µM); for `CCN1CCCc2cc(-c3nc4cnccn4c3NCC(=O)N3CCN(c4c(Cl)cncc4Cl)CC3)ccc21` [Compound 11] it is 0.5 µg/mL (≈ 0.884 µM); for `O=C(CNc1c(-c2ccc(N3CCCC3)cc2)nc2ccccn12)N1CCN(c2ccncc2Cl)CC1` [Compound 42] it is 2.5 µg/mL (≈ 4.84 µM).
